Nine compounds from US9108930B2, “N1- and N2-carbamoyl-1,2,3-triazole serine hydrolase inhibitors and methods” (The Scripps Research Institute, priority 2011, dated 2015) can be followed below.

Molecules are shown by their SMILES. Values joined by “and” are separate entries in the source; they are usually repeats but may differ in a detail not shown here. Equal entries are not always repeated.

Assay [1] has as its system serine hydrolases in mouse brain proteome. The experiment in a line: Selectivity profile by competitive ABPP (mouse brain proteome), DAGL series. The format is biochemical.
Assay [2] has as its target T1, DAGLA (Mus musculus, UniProt Q6WQJ1).
T1 construct: Full-length cDNAs encoding serine hydrolases were purchased from Open Biosystems; V5; host or cells: HEK293T
Description: Activity against recombinant DAGLA. The format is biochemical.

The target in assay [3] is T2, DAGLB (Mus musculus, UniProt Q91WC9).
T2 sequence (Q91WC9 1-669): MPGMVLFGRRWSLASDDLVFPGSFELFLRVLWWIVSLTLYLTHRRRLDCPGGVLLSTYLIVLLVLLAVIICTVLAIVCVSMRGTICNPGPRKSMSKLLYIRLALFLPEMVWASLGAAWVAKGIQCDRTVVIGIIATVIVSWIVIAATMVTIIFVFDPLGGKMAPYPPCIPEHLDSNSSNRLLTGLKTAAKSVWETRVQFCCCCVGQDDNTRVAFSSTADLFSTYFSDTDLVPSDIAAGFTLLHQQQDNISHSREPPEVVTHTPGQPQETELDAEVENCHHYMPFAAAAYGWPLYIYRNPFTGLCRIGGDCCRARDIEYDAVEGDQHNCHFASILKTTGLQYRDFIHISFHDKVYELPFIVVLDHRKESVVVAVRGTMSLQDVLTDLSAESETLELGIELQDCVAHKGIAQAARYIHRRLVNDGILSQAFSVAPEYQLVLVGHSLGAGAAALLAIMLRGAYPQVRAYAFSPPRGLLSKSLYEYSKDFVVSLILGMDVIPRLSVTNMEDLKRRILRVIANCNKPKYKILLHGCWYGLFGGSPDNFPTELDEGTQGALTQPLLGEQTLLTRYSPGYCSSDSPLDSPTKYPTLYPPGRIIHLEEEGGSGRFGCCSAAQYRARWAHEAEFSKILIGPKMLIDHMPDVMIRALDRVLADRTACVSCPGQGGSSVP
Description: Gel-based ABPP assay against recombinant DAGLB (HEK293T-DAGLB lysates). The format is biochemical. Further details: Full-length cDNAs encoding serine hydrolases were purchased from Open Biosystems; V5; host or cells: HEK293T. The conditions noted are these: for activity against DAGLB: recombinant.

The test system of assay [4] is serine hydrolases in mouse tissues. The experiment in a line: In vivo ABPP analysis of tissues from KLH25-treated mice. The note with it: 25 mg/kg in PEG300, i.p., about 4 hours. How it is done: To assess the degree to which KLH25 is active in vivo, mice were treated with the compound for about 4 hours (25 mg/kg in PEG300, administered intraperitoneally, i.p.), sacrificed, and tissues were harvested for ABPP analysis.

Assay [5] has as its target T3, APEH (Mus musculus, UniProt Q8R146).
T3 sequence (Q8R146 1-732): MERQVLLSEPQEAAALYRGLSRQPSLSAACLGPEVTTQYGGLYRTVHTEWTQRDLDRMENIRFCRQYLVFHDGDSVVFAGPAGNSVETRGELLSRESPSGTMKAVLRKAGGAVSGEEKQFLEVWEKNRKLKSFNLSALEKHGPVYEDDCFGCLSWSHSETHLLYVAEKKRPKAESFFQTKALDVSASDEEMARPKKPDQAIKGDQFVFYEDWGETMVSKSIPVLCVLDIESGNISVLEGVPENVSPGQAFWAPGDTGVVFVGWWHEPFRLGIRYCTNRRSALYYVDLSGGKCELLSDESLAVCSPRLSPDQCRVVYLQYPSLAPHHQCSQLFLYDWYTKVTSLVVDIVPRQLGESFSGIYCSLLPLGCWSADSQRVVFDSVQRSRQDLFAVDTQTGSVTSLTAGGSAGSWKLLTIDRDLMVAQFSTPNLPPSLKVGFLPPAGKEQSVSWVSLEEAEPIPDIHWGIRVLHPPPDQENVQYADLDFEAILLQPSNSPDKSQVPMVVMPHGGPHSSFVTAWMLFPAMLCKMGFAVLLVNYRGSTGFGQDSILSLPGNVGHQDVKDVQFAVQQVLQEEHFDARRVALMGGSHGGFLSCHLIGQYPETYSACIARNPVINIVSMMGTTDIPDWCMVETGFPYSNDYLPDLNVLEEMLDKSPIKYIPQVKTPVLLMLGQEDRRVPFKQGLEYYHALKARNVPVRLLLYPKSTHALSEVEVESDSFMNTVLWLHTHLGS
Description: Gel-based competitive ABPP, mouse T-cell proteome in vitro. In kind it is biochemical. The conditions noted are these: IC50 for APEH, in vitro, 30 minutes at 37° C., mouse. How it is done:
The carbamoyl triazole regioisomers were separated by gel chromatography and used for subsequent experiments. […] The compounds were screened at concentrations of 10 and 100 nM in mouse T-cell proteomes (FIG. 3e and FIG. 12).
Gel-based competitive ABPP experiments were performed as described previously. For competitive ABPP with FP-rhodamine, proteomes (1 mg/mL in PBS) were treated with FP-rhodamine (2 μM final concentration) in a […] total reaction volume. After 30 minutes at 25° C., the reactions were quenched with 2×SDS-PAGE loading buffer.
Proteomes were incubated with inhibitors for 30 minutes at 37° C. (in vitro) or for 4 h at 37° C. (in situ) at the indicated concentrations (n=3) prior to FP-rhodamine labeling. After SDS-PAGE and in-gel visualization, the percentage enzymatic activity remaining was determined by measuring the integrated optical intensity of the bands using IMAGER® software. IC50 values were determined from a dose-response curve generated using PRISM® software (GraphPad).

Assay [6] deals with T4, ABHD11 (Mus musculus, UniProt Q8K4F5).
T4 sequence (Q8K4F5 35-307): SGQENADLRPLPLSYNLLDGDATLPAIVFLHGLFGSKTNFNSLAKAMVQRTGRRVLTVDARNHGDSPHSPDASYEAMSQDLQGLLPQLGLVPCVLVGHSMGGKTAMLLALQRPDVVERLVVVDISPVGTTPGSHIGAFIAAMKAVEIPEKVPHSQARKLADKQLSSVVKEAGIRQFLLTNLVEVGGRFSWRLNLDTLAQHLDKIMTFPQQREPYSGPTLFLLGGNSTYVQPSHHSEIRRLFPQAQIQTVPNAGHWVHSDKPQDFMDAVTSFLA
Described as above. In kind it is biochemical. The conditions noted are these: for IC50: in vitro, 30 minutes at 37° C.

Assay [7] has as its target PAFAH2 (Mus musculus, UniProt Q8VDG7). The description is as above. The conditions noted are these: 30 minutes at 37° C. In kind it is biochemical.
Assay [8] relates to serine hydrolases (SHs) in mouse T-cell proteomes. The experiment in a line: Gel-based competitive ABPP, mouse T-cell proteomes in vitro, SH reactivity profile. The conditions noted are these: 100 nM, 30 minutes at 37° C. The format is biochemical.
Assay [9] concerns the target T4, ABHD11. The experiment in a line: In situ inhibition in cultured mouse T-cells, gel-based competitive ABPP. The format is cell-based. The conditions noted are these: 4 h at 37° C.; read-out: potency of ABHD11 inactivation in cultured T-cells.
Assay [10] addresses T4, ABHD11. Description: ABPP-SILAC in living mouse T-cells. The note with it: 3 nM inhibitor, 4 h.

PAFAH2, sequence (Q8VDG7 whole entry): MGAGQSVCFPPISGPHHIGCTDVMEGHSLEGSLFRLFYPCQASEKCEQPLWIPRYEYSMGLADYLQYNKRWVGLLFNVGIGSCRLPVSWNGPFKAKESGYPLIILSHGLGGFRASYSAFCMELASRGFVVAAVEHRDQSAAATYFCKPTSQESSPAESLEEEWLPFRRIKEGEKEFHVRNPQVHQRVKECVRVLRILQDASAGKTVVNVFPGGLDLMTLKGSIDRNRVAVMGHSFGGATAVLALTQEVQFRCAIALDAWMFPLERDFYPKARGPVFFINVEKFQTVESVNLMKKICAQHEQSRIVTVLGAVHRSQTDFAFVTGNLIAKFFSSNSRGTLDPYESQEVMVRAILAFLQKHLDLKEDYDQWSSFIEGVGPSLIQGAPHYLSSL
T1 sequence (Q6WQJ1 whole entry): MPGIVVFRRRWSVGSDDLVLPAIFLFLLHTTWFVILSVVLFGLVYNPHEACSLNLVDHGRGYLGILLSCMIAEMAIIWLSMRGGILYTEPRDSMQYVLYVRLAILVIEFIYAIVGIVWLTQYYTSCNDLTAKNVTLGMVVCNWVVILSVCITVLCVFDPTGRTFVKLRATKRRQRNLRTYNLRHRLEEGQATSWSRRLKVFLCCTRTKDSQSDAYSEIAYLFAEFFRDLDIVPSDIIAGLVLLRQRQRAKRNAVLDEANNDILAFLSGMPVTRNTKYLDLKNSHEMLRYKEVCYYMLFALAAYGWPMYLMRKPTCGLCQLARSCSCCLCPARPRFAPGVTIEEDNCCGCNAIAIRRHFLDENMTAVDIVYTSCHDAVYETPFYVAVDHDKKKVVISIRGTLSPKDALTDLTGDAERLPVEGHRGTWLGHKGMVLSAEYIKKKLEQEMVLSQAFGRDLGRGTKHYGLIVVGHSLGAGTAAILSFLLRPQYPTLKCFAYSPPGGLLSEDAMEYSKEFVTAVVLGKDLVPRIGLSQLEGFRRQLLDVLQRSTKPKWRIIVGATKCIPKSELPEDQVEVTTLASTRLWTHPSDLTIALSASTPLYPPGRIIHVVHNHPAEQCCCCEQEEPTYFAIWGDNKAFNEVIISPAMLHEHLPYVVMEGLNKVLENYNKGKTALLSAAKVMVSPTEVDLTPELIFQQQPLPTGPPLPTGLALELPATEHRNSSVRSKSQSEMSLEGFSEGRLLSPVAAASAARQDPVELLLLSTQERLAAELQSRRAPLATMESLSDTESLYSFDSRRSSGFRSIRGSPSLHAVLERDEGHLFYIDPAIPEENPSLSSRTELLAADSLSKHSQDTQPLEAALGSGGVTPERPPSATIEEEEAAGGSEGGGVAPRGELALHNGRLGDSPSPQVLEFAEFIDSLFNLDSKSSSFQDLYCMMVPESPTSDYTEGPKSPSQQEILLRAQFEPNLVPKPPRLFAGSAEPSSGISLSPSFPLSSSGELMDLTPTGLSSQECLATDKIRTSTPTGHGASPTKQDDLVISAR

In the case of `O=C(N1CCCCC1Cc1ccccc1)n1cc(-c2ccc(OC(F)(F)F)cc2)nn1` (stereo not shown) [KLH25], the “off-target activity / selectivity against other serine hydrolases” value in assay [1] is “negligible activity against LYPLA1, LYPLA2, and PAFAH2”. Besides, the “activity against DAGLA” value in assay [2] is given as “exhibited activity against both DAGL enzymes”. Further, the “activity against DAGLB” value in assay [3] is listed as “significantly more potent against DAGLB in comparison to AA43-2”. Moreover, in assay [4], the “inhibition of ABHD6 and FAAH in vivo” value is “Potent inhibition of ABHD6 and FAAH”; the “inhibition of endogenous DAGLA or DAGLB in vivo” value is “No inhibition of protein bands corresponding to endogenous DAGLA or DAGLB”.

On to `CC(C)CC(O)(CC(C)C)c1cn(C(=O)N2CCCC2)nn1` [N1 AA74-1], for which the IC50 in [5] is approximately 8 nM.

Consider `O=C(N1CCCCC1Cc1ccccc1)n1cc(-c2ccc(Br)cc2)nn1` (stereo not shown) [KT116], for which, in assay [3], the “potency against DAGLB relative to KT117” value is “greater than 5 fold”.

`COCC1CCCCN1C(=O)n1cc(C(O)(c2ccccc2)c2ccccc2)nn1` (stereo not shown) [N1 AA44-2] registered an IC50 in assay [6] of approximately 58 nM.

In assay [7], `O=C(N1CCCC1)n1cc(-c2ccc(Br)cc2)nn1` [N1 AA80-1] came in with an IC50 of 11 nM.

In the case of `CCCCCCCCCCC[C@@H](C[C@@H]1OC(=O)[C@H]1CCCCCC)OC(=O)[C@H](CC(C)C)NC=O` [THL, tetrahydrolipstatin, reference compound], the “activity against DAGLB” value in assay [3] was “blocked”.

Compound `O=C(N1CCCC1)n1ncc(-c2ccc(Br)cc2)n1` [N2 AA80-1] showed an IC50 in assay [7] of 5 nM.

Consider `O=C(N1CCCCC1Cc1ccccc1)n1cc(C(O)(c2ccccc2)c2ccccc2)nn1` (stereo not shown) [AA43-2], for which the “off-target activity / selectivity against other serine hydrolases” value in assay [1] is “off-target activity against several other serine hydrolases, notably ABHD6, KIAA1363, and LYPLA1/2”. For the same compound, in assay [3], the IC50 is approximately 200 nM and the “activity against DAGLB” value was “completely blocked probe-labeling of DAGLB”.

Regarding `COCC1CCCCN1C(=O)n1ncc(C(O)(c2ccccc2)c2ccccc2)n1` (stereo not shown) [AA44-2], the “cross-reactivity with other SHs” value in [8] is reported as “no cross-reactivity with APEH, PAFAH2, or other SHs”. Also, the IC50 in assay [9] was 0.14 to 0.17 nM; in [6] it was 1 nM. Further, the “inhibition of ABHD11” value in assay [6] (10 nM) is given as “complete inactivation”. The ABHD11 activity blocked in assay [10] was > 95% and > 97%.
